Assay results reported in patent publication US11231416B2, “Virus-like particle (VLP) based small molecule-protein interaction trap” (VIB VZW, priority 2015, dated 2022).
Like-named read-outs stand apart in the source and are kept apart here.

Key:
[1] = tested on: C28H10ORF35; settings: all proteins (incl. low confidence identifications)
Protocol: (§1) For mass spectrometry, 10^7 HEK293T cells were seeded in five flasks (75 cm^2) and transfected the next day with a total of 15 μg DNA per flask using polyethylene imine reagent. The following DNA quantities were used per flask: 7.5 μg of GAG-eDHFR, 5.4 μg of mock vector and 2.1 μg of a 50/50 mix of pMD2.G and pcDNA3-FLAG-VSV-G. The small molecule fusions were added immediately after transfection to the producing cells at a concentration of 1 μM. The same dilution of dimethyl sulfoxide (DMSO) was added in control experiments to control the effect of this chemical on the cells. The cellular supernatant was harvested after 32 hours and was centrifuged for 3 minutes at 450×g to remove cellular debris. The cleared supernatant was then filtered using 0.45 μm filters (Millipore). A total of 100 μl MyOne™ Streptavidin T1 beads (Life Technologies) pre-loaded with 10 μg ANTI-FLAG® BioM2-Biotin antibody (Sigma-Aldrich®) was used to bind the tagged particles. Particles were allowed to bind for 2 hours by end-over-end rotation. The total supernatant was processed in three consecutive binding steps. Bead-particle complexes were washed once with washing buffer (TWB: 20 mM Tris-HCl pH 7.5, 150 mM NaCl) and were then eluted with FLAG peptide (200 μg/ml in TWB) and lysed by addition of SDS to a final concentration of 0.1%. After 5 minutes, SDS was removed using HiPPR Detergent Removal Spin Columns (Pierce, Thermo Scientific) followed by boiling and overnight digestion with 0.5 μg sequence-grade trypsin (Promega). After acidification (0.1% TFA final), the peptides were separated by nano-LC and directly analyzed with a Q Exactive instrument (Thermo Scientific).
(§2) For tamoxifen, four biological repeats were performed where the cells were treated with MTX-PEG6-tamoxifen after transfection. The obtained protein lists after viral trapping and MS analysis were challenged with protein lists coming from the four DMSO controls, the 19 control experiments and the lists obtained for the MTX-PEG6-simvastatin and MTX-PEG6-reversine (see below) for a total of 30 samples.

[2] = tested on: FAM62A
Protocol: as §1, §2

[3] = tested on: PRSS3; settings: all proteins (incl. low confidence identifications)
Protocol: as §1, §2

[4] = biological target: T1, HSD17B4 (Homo sapiens, UniProt P51659); assay: Binary MASPIT assay; type: cell-based; settings: HEK293T cells, 100 ng/ml leptin, 24 hours; FIG. 4
T1 construct: endogenous in cells; host or cells: HEK293T
T1 sequence (P51659 1-736): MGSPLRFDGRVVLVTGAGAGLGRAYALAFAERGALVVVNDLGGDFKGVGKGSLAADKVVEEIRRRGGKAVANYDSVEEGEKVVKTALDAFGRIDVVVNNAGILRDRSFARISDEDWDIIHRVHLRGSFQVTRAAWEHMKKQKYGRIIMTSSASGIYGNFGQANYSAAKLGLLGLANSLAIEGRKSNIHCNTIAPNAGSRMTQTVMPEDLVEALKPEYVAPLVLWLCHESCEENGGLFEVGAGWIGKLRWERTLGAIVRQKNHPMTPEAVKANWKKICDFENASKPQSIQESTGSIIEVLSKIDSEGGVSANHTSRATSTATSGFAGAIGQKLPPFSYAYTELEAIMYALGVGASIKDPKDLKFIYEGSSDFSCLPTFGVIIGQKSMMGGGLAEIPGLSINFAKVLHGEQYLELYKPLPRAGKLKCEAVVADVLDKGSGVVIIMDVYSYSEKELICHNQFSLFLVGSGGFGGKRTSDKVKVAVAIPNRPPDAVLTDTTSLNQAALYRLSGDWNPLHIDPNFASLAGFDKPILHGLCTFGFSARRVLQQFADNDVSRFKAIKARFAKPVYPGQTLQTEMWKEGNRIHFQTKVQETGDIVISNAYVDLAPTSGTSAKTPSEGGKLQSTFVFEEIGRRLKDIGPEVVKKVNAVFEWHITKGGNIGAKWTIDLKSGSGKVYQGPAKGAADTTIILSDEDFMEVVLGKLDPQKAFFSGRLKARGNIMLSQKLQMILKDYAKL
Protocol: The binding of HSD17B4 to tamoxifen was further confirmed using the MASPIT technology. The binary MASPIT assay was essentially performed as described before (Risseeuw et al., 2013). Briefly, HEK293T cells were seeded in black tissue-culture treated 96-well plates at 10.000 cells/well in 100 μl culture medium (DMEM supplemented with 10% fetal calf serum), and grown at 37° C., 8% CO2. Twenty-four hours later cells were transfected with a combination of the pCLG-eDHFR plasmid (Risseeuw et al., 2013), the pMG1-HSD17B4 construct and the pXP2d2-rPAP1-luciferase reporter (Caligiuri et al., 2006). The pMG1-HSD17B4 construct was generated by Gateway transfer of the full size HSD17B4 ORF, obtained as an entry clone in the hORFeome collection, into the Gateway compatible pMG1 prey destination vector as described earlier (Lievens et al., 2009). Twenty-four hours after transfection, cells were either left unstimulated or treated with 100 ng/ml leptin, with or without addition of MTX-PEG6-tamoxifen. Another 24 hours later, luciferase activity was assayed using the Luciferase Assay System kit (Promega).

CCC(=C(c1ccccc1)c1ccc(OCCN(C)Cc2cn(CCOCCOCCOCCOCCOCCNC(=O)CCC(NC(=O)c3ccc(N(C)Cc4cnc5nc(N)nc(N)c5n4)cc3)C(=O)O)nn2)cc1)c1ccccc1 (centres unmarked) [MTX-PEG6-tamoxifen]
Recurrence (x/4) [1]: 1 x/4
Recurrence (x/4) ([2]; all proteins (incl. low confidence identifications)): 1 x/4
Recurrence (x/4) ([2]; proteins identified with >1 peptide (high confidence)): 1 x/4
Recurrence (x/4) [3]: 1 x/4
luciferase activity (MASPIT signal) [4]: increased luciferase activity in a dose-dependent manner
